Test results published in patent publication EP1086692A2, “Estrogen agonists and antagonists for multiple indications” (priority 1999, dated 2001).
Several values for one entry are separate records, joined by “and”; a condition that tells them apart may be missing. Equal values may be shown once.

Legend:
human plasma proteins [1] = experiment: Binding of propranolol to human plasma proteins in the absence and presence of droloxifene or lasofoxifene (equilibrium dialysis, HPLC-MS); conditions: result in words; droloxifene 200 ng/ml, lasofoxifene 50 ng/ml
Experimental: (§1) The effect of droloxifene or lasofoxifene on plasma protein binding was assessed at […] concentrations of 2 and 10 µg/ml and propranolol concentrations of 50 and 500 ng/ml. The concentrations of droloxifene and lasofoxifene used were 200 and 50 ng/ml respectively.

human plasma proteins [2] = experiment: Binding of droloxifene and lasofoxifene to human plasma proteins; conditions: binding of the SERM itself, human plasma
[3] = as above; conditions: human, plasma
[4] = Binding of propranolol to human plasma proteins in the absence and presence of droloxifene or lasofoxifene (equilibrium dialysis, HPLC-MS); conditions: human, plasma
Experimental: as §1

Compound	effect on the protein binding of propranolol in human plasma (human plasma proteins [1])	bound to human plasma proteins (human plasma proteins [2])	fraction unbound [3]	fraction unbound [4]
CC/C(=C(/c1ccc(OCCN(C)C)cc1)c1cccc(O)c1)c1ccccc1 [droloxifene]	will not be altered	99.997%	3e-05	
Oc1ccc2c(c1)CC[C@H](c1ccccc1)[C@@H]2c1ccc(OCCN2CCCC2)cc1 [lasofoxifene, (-) cis-6-phenyl-5[4-(2-pyrrolitin-1-yl-ehtoxy)-phenyl]-5,6,7,8-tetrahydronaphthalene-2-ol]	will not be altered	99.997% and 99.94%		
CC(C)NCC(O)COc1cccc2ccccc12 (stereo not drawn) [propranolol, reference compound]				0.24
